Read-outs that look alike come from different tables or passages of the source.
Experiments:
Assay type in all cases: in vivo
[1] = system: galium (catchweed bedstraw, Galium aparine); experiment: Test B pre-/postemergence plant response; conditions: Preemergence
How it was run: (§1)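 Greenhouse herbicide screen. Pre- and postemergence (1- to 4-leaf) spray of compound in solvent/surfactant mixture; loam–sand soil for pre, peat/vermiculite medium for post. Visual control rating 0–100 at 13 to 15 days after treatment.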

[2] = system: nightshade (eastern black nightshade, Solanum ptycanthum); experiment: Test B pre-/postemergence plant response; conditions: Preemergence
How it was run: as §1

[3] = system: sunflower (common oilseed sunflower, Helianthus annuus); experiment: Test B pre-/postemergence plant response; conditions: Preemergence
How it was run: as §1

wild oat (Avena fatua) = experiment: Test B pre-/postemergence plant response
How it was run: as §1

[4] = system: barnyardgrass (Echinochloa crus-galli); experiment: Test D pre-/postemergence plant response
How it was run: (§2)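 Greenhouse assay: sown seeds in loam/sand received preemergence spray; simultaneously, emerged seedlings (1- to 4-leaf, 2–18 cm) got postemergence spray of the same surfactant-containing formulation. Rating at 14–21 days by visual comparison with controls, 0 = no effect to 100 = complete control.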

[5] = system: dallisgrass (Paspalum dilatatum); experiment: Test D pre-/postemergence plant response
How it was run: as §2

[6] = system: groundsel (common groundsel, Senecio vulgaris); experiment: Test D pre-/postemergence plant response; conditions: Postemergence
How it was run: as §2

[7] = system: johnsongrass (Sorghum halepense); experiment: Test D pre-/postemergence plant response
How it was run: as §2

[8] = system: large crabgrass (Digitaria sanguinalis); experiment: Test D pre-/postemergence plant response
How it was run: as §2

[9] = system: quackgrass (Elytrigia repens); experiment: Test D pre-/postemergence plant response
How it was run: as §2

[10] = system: ragweed (common ragweed, Ambrosia elatior); experiment: Test D pre-/postemergence plant response
How it was run: as §2

[11] = system: sandbur (southern sandbur, Cenchrus echinatus); experiment: Test D pre-/postemergence plant response
How it was run: as §2

[12] = 31 g ai/ha, scale 0 to 100 (0 no effect, 100 complete control)
[13] = 62 g ai/ha, scale 0 to 100 (0 no effect, 100 complete control)
[14] = 125 g ai/ha, scale 0 to 100, 0 no effect, 100 complete control
[15] = Postemergence, 250 g ai/ha, scale 0 to 100 (0 no effect, 100 complete control)
[16] = Preemergence, 31 g ai/ha, scale 0 to 100 (0 no effect, 100 complete control)
[17] = Postemergence, 62 g ai/ha, scale 0 to 100 (0 no effect, 100 complete control)
[18] = Postemergence, 125 g ai/ha, scale 0 to 100 (0 no effect, 100 complete control)
[19] = Postemergence, 16 g ai/ha, scale 0 to 100
[20] = Preemergence, 16 g ai/ha, scale 0 to 100, 0 no effect, 100 complete control
[21] = Preemergence, 62 g ai/ha, scale 0 to 100
[22] = Preemergence, 125 g ai/ha, scale 0 to 100
[23] = Postemergence, 31 g ai/ha, scale 0 to 100
[24] = 125 g ai/ha, scale 0 to 100 (0 no effect, 100 complete control)
[25] = Preemergence, 250 g ai/ha, scale 0 to 100

O=C1CCCC(O)=C1C(=O)c1cnc(-c2ccccc2)n(CC2CCCO2)c1=O (centres unmarked) [Compound 59]
Plant response rating, Galium ([1]; 250 g ai/ha, 0 to 100 scale): 98
Plant response rating, Galium [1, 12]: 0
Plant response rating, Galium [1, 13]: 90
Plant response rating, Galium [1, 14]: 95
Plant response rating, Nightshade [2, 12]: 95
Plant response rating, Nightshade [2, 13]: 98
Plant response rating, Nightshade [2, 14]: 100
Plant response rating, Sunflower [3, 12]: 55
Plant response rating, Sunflower [3, 13]: 65
Plant response rating, Sunflower [3, 14]: 70
Plant response rating, Oat, Wild (wild oat (Avena fatua); 31 g ai/ha, postemergence, scale 0 to 100, 0 is no effect, 100 is complete control): 30
Plant response rating, Oat, Wild (wild oat (Avena fatua); Postemergence, 62 g ai/ha, scale 0 (no effect) to 100 (complete control), 13 to 15 days): 40
Plant response rating, Oat, Wild (wild oat (Avena fatua); Postemergence, 125 g ai/ha, visual rating after 13 to 15 days, scale 0 (no effect) to 100 (complete control)): 55
Plant response rating, Oat, Wild (wild oat (Avena fatua); [15]): 80
Plant response rating, Oat, Wild (wild oat (Avena fatua); [16]): 0
Plant response rating, Oat, Wild (wild oat (Avena fatua); Preemergence, 62 g ai/ha, scale 0 to 100 (0 no effect, 100 complete control)): 0
Plant response rating, Oat, Wild (wild oat (Avena fatua); Preemergence, 125 g ai/ha, scale 0 to 100, 0 no effect, 100 complete control): 0
Plant response rating, Barnyardgrass ([4]; Postemergence, 31 g ai/ha, scale 0 to 100 (0 no effect, 100 complete control)): 60
Plant response rating, Barnyardgrass [4, 17]: 60
Plant response rating, Barnyardgrass [4, 18]: 75
Plant response rating, Barnyardgrass [4, 19]: 40
Plant response rating, Barnyardgrass [4, 20]: 0
Plant response rating, Barnyardgrass [4, 16]: 0
Plant response rating, Barnyardgrass [4, 21]: 0
Plant response rating, Barnyardgrass [4, 22]: 10
Plant response rating, Dallisgrass [5, 23]: 10
Plant response rating, Dallisgrass [5, 17]: 20
Plant response rating, Dallisgrass [5, 18]: 50
Plant response rating, Dallisgrass [5, 19]: 10
Plant response rating, Dallisgrass [5, 20]: 0
Plant response rating, Dallisgrass [5, 16]: 0
Plant response rating, Dallisgrass [5, 21]: 65
Plant response rating, Dallisgrass [5, 22]: 75
Plant response rating, Groundsel ([6]; 31 g ai/ha, scale 0 to 100): 90
Plant response rating, Groundsel [6, 13]: 100
Plant response rating, Groundsel [6, 24]: 100
Plant response rating, Groundsel ([6]; 16 g ai/ha, scale 0 to 100): 70
Plant response rating, Johnsongrass [7, 23]: 35
Plant response rating, Johnsongrass [7, 17]: 40
Plant response rating, Johnsongrass [7, 18]: 60
Plant response rating, Johnsongrass [7, 19]: 30
Plant response rating, Johnsongrass [7, 20]: 0
Plant response rating, Johnsongrass [7, 16]: 0
Plant response rating, Johnsongrass [7, 21]: 10
Plant response rating, Johnsongrass [7, 22]: 35
Plant response rating, Crabgrass, Large [8, 23]: 35
Plant response rating, Crabgrass, Large [8, 17]: 50
Plant response rating, Crabgrass, Large [8, 18]: 70
Plant response rating, Crabgrass, Large [8, 19]: 35
Plant response rating, Crabgrass, Large [8, 20]: 0
Plant response rating, Crabgrass, Large [8, 16]: 35
Plant response rating, Crabgrass, Large [8, 21]: 35
Plant response rating, Crabgrass, Large [8, 22]: 65
Plant response rating, Quackgrass [9, 23]: 0
Plant response rating, Quackgrass [9, 17]: 0
Plant response rating, Quackgrass [9, 18]: 0
Plant response rating, Quackgrass [9, 19]: 0
Plant response rating, Quackgrass [9, 20]: 0
Plant response rating, Quackgrass [9, 16]: 0
Plant response rating, Quackgrass [9, 22]: 0
Plant response rating, Ragweed [10, 23]: 70
Plant response rating, Ragweed [10, 18]: 80
Plant response rating, Ragweed [10, 19]: 70
Plant response rating, Ragweed [10, 20]: 0
Plant response rating, Ragweed [10, 16]: 50
Plant response rating, Ragweed [10, 22]: 100
Plant response rating, Sandbur [11, 23]: 5
Plant response rating, Sandbur [11, 17]: 5
Plant response rating, Sandbur [11, 18]: 25
Plant response rating, Sandbur [11, 19]: 5
Plant response rating, Sandbur [11, 20]: 0
Plant response rating, Sandbur [11, 16]: 0
Plant response rating, Sandbur [11, 22]: 0

COCCn1c(-c2cc(F)cc(F)c2)ncc(C(=O)C2=C(O)C3CCC(C3)C2=O)c1=O (centres unmarked) [Compound 243, 2-(3,5-difluorophenyl)-5-[(2-hydroxy-4-oxobicyclo[3.2.1]oct-2-en-3-yl)carbonyl]-3-(2-methoxyethyl)-4(3H)-pyrimidinone]
Plant response rating, Galium [1, 12]: 85
Plant response rating, Galium [1, 13]: 90
Plant response rating, Galium [1, 14]: 98
Galium plant response rating ([1]; 250 g ai/ha, 0 to 100 scale): 100
Plant response rating, Nightshade [2, 12]: 90
Plant response rating, Nightshade [2, 13]: 98
Plant response rating, Nightshade [2, 14]: 98
Nightshade plant response rating ([2]; 250 g ai/ha, 0 to 100 scale): 98
Plant response rating, Sunflower [3, 12]: 80
Plant response rating, Sunflower [3, 13]: 85
Plant response rating, Sunflower [3, 14]: 95
Sunflower plant response rating ([3]; 250 g ai/ha, 0 to 100 scale): 95
pest or weed control at 31 g/ha (wild oat (Avena fatua); Avena fatua, post-emergence, Postemergence, 31 g ai/ha, 0 to 100 scale (0 no effect, 100 complete control), read-out: Plant response rating, Oat, Wild): 80%
pest or weed control at 62 g/ha (wild oat (Avena fatua); Avena fatua, post-emergence, Postemergence, 62 g ai/ha, scale 0 to 100 (0 no effect, 100 complete control), read-out: Plant response rating, Oat, Wild): 85%
pest or weed control at 125 g/ha (wild oat (Avena fatua); Avena fatua, post-emergence, Postemergence, 125 g ai/ha, scale 0 (no effect) to 100 (complete control), 13 to 15 days, read-out: Plant response rating, Oat, Wild): 85%
pest or weed control at 250 g/ha (wild oat (Avena fatua); Avena fatua, post-emergence, Postemergence, 250 g ai/ha, scale 0 to 100 (0 no effect, 100 complete control), 13 to 15 days, read-out: Plant response rating, Oat, Wild): 100%
pest or weed control at 31 g/ha (wild oat (Avena fatua); Avena fatua, pre-emergence, Preemergence, 31 g ai/ha, scale 0 to 100 (0 no effect, 100 complete control), read-out: Plant response rating, Oat, Wild): 30%
pest or weed control at 62 g/ha (wild oat (Avena fatua); Avena fatua, pre-emergence, Preemergence, 62 g ai/ha, scale 0 to 100 (0 no effect, 100 complete control), read-out: Plant response rating, Oat, Wild): 85%
pest or weed control at 125 g/ha (wild oat (Avena fatua); Avena fatua, pre-emergence, Preemergence, 125 g ai/ha, scale 0 to 100, 0 no effect, 100 complete control, read-out: Plant response rating, Oat, Wild): 85%
Oat, Wild plant response rating (wild oat (Avena fatua); Preemergence, 250 g ai/ha, 0 to 100 scale): 90
Plant response rating, Barnyardgrass [4, 23]: 75
Plant response rating, Barnyardgrass [4, 17]: 80
Plant response rating, Barnyardgrass [4, 18]: 80
Plant response rating, Barnyardgrass [4, 15]: 90
Plant response rating, Barnyardgrass [4, 21]: 100
Plant response rating, Barnyardgrass [4, 22]: 100
Plant response rating, Barnyardgrass [4, 25]: 100
Plant response rating, Dallisgrass [5, 23]: 75
Plant response rating, Dallisgrass [5, 17]: 80
Plant response rating, Dallisgrass [5, 18]: 90
Plant response rating, Dallisgrass [5, 15]: 90
Plant response rating, Dallisgrass [5, 21]: 100
Plant response rating, Dallisgrass [5, 22]: 100
Plant response rating, Dallisgrass [5, 25]: 100
Plant response rating, Groundsel ([6]; 31 g ai/ha, scale 0 to 100): 98
Plant response rating, Groundsel [6, 13]: 100
Plant response rating, Groundsel [6, 24]: 100
Plant response rating, Groundsel ([6]; 250 g ai/ha, scale 0 to 100 (0 no effect, 100 complete control)): 100
Plant response rating, Johnsongrass [7, 23]: 70
Plant response rating, Johnsongrass [7, 17]: 70
Plant response rating, Johnsongrass [7, 18]: 70
Plant response rating, Johnsongrass [7, 15]: 75
Plant response rating, Johnsongrass [7, 21]: 100
Plant response rating, Johnsongrass [7, 22]: 100
Plant response rating, Johnsongrass [7, 25]: 100
Plant response rating, Crabgrass, Large [8, 23]: 75
Plant response rating, Crabgrass, Large [8, 17]: 80
Plant response rating, Crabgrass, Large [8, 18]: 85
Plant response rating, Crabgrass, Large [8, 15]: 85
Plant response rating, Crabgrass, Large [8, 21]: 100
Plant response rating, Crabgrass, Large [8, 22]: 100
Plant response rating, Crabgrass, Large [8, 25]: 100
Plant response rating, Quackgrass [9, 23]: 35
Plant response rating, Quackgrass [9, 17]: 40
Plant response rating, Quackgrass [9, 18]: 70
Plant response rating, Quackgrass [9, 15]: 75
Plant response rating, Quackgrass [9, 22]: 85
Plant response rating, Quackgrass [9, 25]: 98
Plant response rating, Ragweed [10, 23]: 65
Plant response rating, Ragweed [10, 17]: 70
Plant response rating, Ragweed [10, 18]: 75
Plant response rating, Ragweed [10, 15]: 75
Plant response rating, Ragweed [10, 22]: 100
Plant response rating, Ragweed [10, 25]: 100
Plant response rating, Sandbur [11, 23]: 75
Plant response rating, Sandbur [11, 17]: 75
Plant response rating, Sandbur [11, 18]: 75
Plant response rating, Sandbur [11, 15]: 80
Plant response rating, Sandbur [11, 22]: 100
Plant response rating, Sandbur [11, 25]: 100

— patent US8952024B2, “Herbicidal pyrimidone derivatives” (E I du Pont de Nemours and Company, priority 2009, dated 2015)
